US8765940B2 (priority 2009, dated 2014)

Biological target: PI3Kδ (Homo sapiens (Human), UniProt O00329)
Assay type: biochemical
Settings: PI3Kδ Alphascreen assay
Procedure: A PI3K Alphascreen® assay (PerkinElmer, Waltham, Mass.) was used to measure the activity of a panel of four phosphoinositide 3-kinases: PI3Kα, PI3Kβ, PI3Kγ, and PI3Kδ. Enzyme reaction buffer was prepared using sterile water (Baxter, Deerfield, Ill.) and 50 mM Tris HCl pH 7, 14 mM MgCl2, 2 mM sodium cholate, and 100 mM NaCl. 2 mM DTT was added fresh the day of the experiment. The Alphascreen buffer was made using sterile water and 10 mM Tris HCl pH 7.5, 150 mM NaCl, 0.10% Tween 20, and 30 mM EDTA. 1 mM DTT was added fresh the day of the experiment. Compound source plates used for this assay were 384-well Greiner clear polypropylene plates containing test compounds at 5 mM and diluted 1:2 over 22 concentrations. Columns 23 and 24 contained only DMSO as these wells comprised the positive and negative controls, respectively. Source plates were replicated by transferring 0.5 uL per well into 384-well Optiplates (PerkinElmer, Waltham, Mass.).
Each PI3K isoform was diluted in enzyme reaction buffer to 2× working stocks. PI3Kα was diluted to 1.6 nM, PI3Kβ was diluted to 0.8 nM, PI3Kγ was diluted to 15 nM, and PI3Kδ was diluted to 1.6 nM. PI(4,5)P2 (Echelon Biosciences, Salt Lake City, Utah) was diluted to 10 μM and ATP was diluted to 20 μM. This 2× stock was used in the assays for PI3Kα and PI3Kβ. For assay of PI3Kγ and PI3Kδ, PI(4,5)P2 was diluted to 10 μM and ATP was diluted to 8 μM to prepare a similar 2× working stock. Alphascreen reaction solutions were made using beads from the anti-GST Alphascreen kit (PerkinElmer, Waltham, Mass.). Two 4× working stocks of the Alphascreen reagents were made in Alphascreen reaction buffer. In one stock, biotinylated-IP4 (Echelon Biosciences, Salt Lake City, Utah) was diluted to 40 nM and streptavadin-donor beads were diluted to 80 μg/mL. In the second stock, PIP3-binding protein (Echelon Biosciences, Salt Lake City, Utah) was diluted to 40 nM and anti-GST-acceptor beads were diluted to 80 μg/mL.
Using a 384-well Multidrop (Titertek, Huntsville, Ala.), 10 μL/well of 2× enzyme stock was added to columns 1-24 of the assay plates for each isoform. 10 μL/well of the appropriate substrate 2× stock (containing 20 μM ATP for the PI3Kα and β assays and containing 8 μM ATP for the PI3Kγ and δ assays) was then added to Columns 1-24 of all plates. Plates were then incubated at room temperature for 20 minutes. In the dark, 10 μL/well of the donor bead solution was added to columns 1-24 of the plates to quench the enzyme reaction. The plates were incubated at room temperature for 30 minutes. Still in the dark, 10 μL/well of the acceptor bead solution was added to columns 1-24 of the plates. The plates were then incubated in the dark for 1.5 hours. The plates were read on an Envision multimode Plate Reader (PerkinElmer, Waltham, Mass.) using a 680 nm excitation filter and a 520-620 nm emission filter.

PI3Kδ, sequence (O00329 whole entry): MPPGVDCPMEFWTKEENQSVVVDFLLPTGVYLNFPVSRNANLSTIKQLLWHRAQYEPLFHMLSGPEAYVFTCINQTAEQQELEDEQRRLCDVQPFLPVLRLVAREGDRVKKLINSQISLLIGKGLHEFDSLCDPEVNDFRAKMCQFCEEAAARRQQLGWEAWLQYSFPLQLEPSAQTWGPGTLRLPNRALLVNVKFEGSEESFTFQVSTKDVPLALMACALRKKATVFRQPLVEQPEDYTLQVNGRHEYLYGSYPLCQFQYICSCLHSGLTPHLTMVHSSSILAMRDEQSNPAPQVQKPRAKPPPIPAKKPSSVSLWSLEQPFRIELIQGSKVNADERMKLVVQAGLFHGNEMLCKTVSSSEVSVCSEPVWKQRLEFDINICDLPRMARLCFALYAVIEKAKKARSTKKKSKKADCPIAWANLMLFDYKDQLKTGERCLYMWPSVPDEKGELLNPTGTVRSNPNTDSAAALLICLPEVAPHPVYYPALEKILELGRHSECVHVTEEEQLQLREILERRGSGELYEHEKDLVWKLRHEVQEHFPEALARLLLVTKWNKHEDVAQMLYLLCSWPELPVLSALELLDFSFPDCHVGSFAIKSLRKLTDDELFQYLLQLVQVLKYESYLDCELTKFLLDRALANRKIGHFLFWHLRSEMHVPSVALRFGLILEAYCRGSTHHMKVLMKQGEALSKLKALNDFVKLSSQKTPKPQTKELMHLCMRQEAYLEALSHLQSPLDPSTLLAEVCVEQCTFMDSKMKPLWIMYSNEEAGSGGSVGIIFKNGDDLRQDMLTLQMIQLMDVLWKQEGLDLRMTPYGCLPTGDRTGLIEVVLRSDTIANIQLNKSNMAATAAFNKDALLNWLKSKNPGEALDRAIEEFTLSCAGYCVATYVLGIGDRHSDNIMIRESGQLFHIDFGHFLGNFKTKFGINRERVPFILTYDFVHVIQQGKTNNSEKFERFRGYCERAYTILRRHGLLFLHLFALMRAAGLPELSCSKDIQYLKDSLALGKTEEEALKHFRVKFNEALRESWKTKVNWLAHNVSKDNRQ
PI3Kδ, sequence (P27986 whole entry partner): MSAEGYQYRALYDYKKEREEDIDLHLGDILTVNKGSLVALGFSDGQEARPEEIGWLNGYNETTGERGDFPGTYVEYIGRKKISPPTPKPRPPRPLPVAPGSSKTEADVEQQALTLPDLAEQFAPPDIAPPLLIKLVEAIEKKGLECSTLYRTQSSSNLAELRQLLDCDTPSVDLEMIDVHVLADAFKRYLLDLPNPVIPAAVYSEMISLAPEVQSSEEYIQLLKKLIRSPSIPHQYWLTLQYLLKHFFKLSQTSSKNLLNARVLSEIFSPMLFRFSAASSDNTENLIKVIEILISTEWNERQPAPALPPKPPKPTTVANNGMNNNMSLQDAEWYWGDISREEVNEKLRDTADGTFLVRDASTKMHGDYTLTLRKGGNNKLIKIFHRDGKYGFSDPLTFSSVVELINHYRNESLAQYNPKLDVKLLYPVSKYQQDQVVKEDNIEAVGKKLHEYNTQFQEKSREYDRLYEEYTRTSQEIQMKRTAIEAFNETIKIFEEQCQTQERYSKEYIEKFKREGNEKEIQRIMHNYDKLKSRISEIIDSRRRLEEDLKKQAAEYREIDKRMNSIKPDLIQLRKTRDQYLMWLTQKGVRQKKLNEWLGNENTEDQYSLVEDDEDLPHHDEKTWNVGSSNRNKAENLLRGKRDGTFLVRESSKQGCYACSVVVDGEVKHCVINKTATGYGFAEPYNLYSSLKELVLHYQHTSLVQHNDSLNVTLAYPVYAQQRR

Row | Ki | Compound
1 | 622 nM | COc1cc2nc(C)c(C)c(N3CC(C)(C)c4ccc(N5CCOCC5)cc43)c2cc1C [4-(3,3-dimethyl-6-(4-morpholinyl)-2,3-dihydro-1H-indol-1-yl)-7-methoxy-2,3,6-trimethylquinoline]
2 | 93.7 nM | Cc1c(-c2ccccn2)nc2c(F)cccc2c1N1CC(C)(C)c2ccc(N3CCOCC3)cc21 [4-(3,3-dimethyl-6-(4-morpholinyl)-2,3-dihydro-1H-indol-1-yl)-8-fluoro-3-methyl-2-(2-pyridinyl)quinoline]
3 | 15.6 nM | Cc1cc(C)cc(-c2nc3cc(F)ccc3c(N3CC(C)(C)c4ncc(N5CCOCC5)cc43)c2C)c1 [4-(3,3-dimethyl-6-(4-morpholinyl)-2,3-dihydro-1H-pyrrolo[3,2-b]pyridin-1-yl)-2-(3,5-dimethylphenyl)-7-fluoro-3-methylquinoline]
4 | 5.38 nM | Cc1c(-c2cccc(F)c2)nc2ncccc2c1N1CC(C)(C)c2ncc(N3CCOCC3)cc21 [4-(3,3-dimethyl-6-(4-morpholinyl)-2,3-dihydro-1H-pyrrolo[3,2-b]pyridin-1-yl)-2-(3-fluorophenyl)-3-methyl-1,8-naphthyridine]
5 | 7.75 nM | Cc1c(-c2cncc(F)c2)nc2cnccc2c1N1CC(C)(C)c2ncc(N3CCOCC3)cc21 [4-(3,3-dimethyl-6-(4-morpholinyl)-2,3-dihydro-1H-pyrrolo[3,2-b]pyridin-1-yl)-2-(5-fluoro-3-pyridinyl)-3-methyl-1,7-naphthyridine]
6 | 5.37 nM | Cc1ccnc(-c2nc3cnccc3c(N3CC(C)(C)c4ncc(N5CCOCC5)cc43)c2C)c1 [4-(3,3-dimethyl-6-(4-morpholinyl)-2,3-dihydro-1H-pyrrolo[3,2-b]pyridin-1-yl)-3-methyl-2-(4-methyl-2-pyridinyl)-1,7-naphthyridine]
7 | 2.77 nM | Cc1c(-c2cccc3[nH]ccc23)nc2cc(F)cc(F)c2c1N1CC(C)(C)c2ncc(N3CCOCC3)cc21 [4-(3,3-dimethyl-6-(4-morpholinyl)-2,3-dihydro-1H-pyrrolo[3,2-b]pyridin-1-yl)-5,7-difluoro-2-(1H-indol-4-yl)-3-methylquinoline]
8 | 2.87 nM | Cc1c(Cc2cccc(F)c2)nc2cc(F)cc(F)c2c1N1CC(C)(C)c2ncc(N3CCOCC3)cc21 [4-(3,3-dimethyl-6-(4-morpholinyl)-2,3-dihydro-1H-pyrrolo[3,2-b]pyridin-1-yl)-5,7-difluoro-2-(3-fluorobenzyl)-3-methylquinoline]
9 | 5.21 nM | Cc1c(-c2cncc(F)c2)nc2cc(F)cc(F)c2c1N1CC(C)(C)c2ncc(N3CCOCC3)cc21 [4-(3,3-dimethyl-6-(4-morpholinyl)-2,3-dihydro-1H-pyrrolo[3,2-b]pyridin-1-yl)-5,7-difluoro-2-(5-fluoro-3-pyridinyl)-3-methylquinoline]
10 | 195 nM | Cc1c(-c2ccc3c(ccn3C)c2)nc2cc(F)cc(F)c2c1N1CC(C)(C)c2ncc(N3CCOCC3)cc21 [4-(3,3-dimethyl-6-(4-morpholinyl)-2,3-dihydro-1H-pyrrolo[3,2-b]pyridin-1-yl)-5,7-difluoro-3-methyl-2-(1-methyl-1H-indol-5-yl)quinoline]
11 | 230 nM | Cc1c(-c2cccc3ccccc23)nc2cc(F)cc(F)c2c1N1CC(C)(C)c2ncc(N3CCOCC3)cc21 [4-(3,3-dimethyl-6-(4-morpholinyl)-2,3-dihydro-1H-pyrrolo[3,2-b]pyridin-1-yl)-5,7-difluoro-3-methyl-2-(1-naphthalenyl)quinoline]
12 | 21.8 nM | Cc1c(C2(c3ccccc3)CC2)nc2cc(F)cc(F)c2c1N1CC(C)(C)c2ncc(N3CCOCC3)cc21 [4-(3,3-dimethyl-6-(4-morpholinyl)-2,3-dihydro-1H-pyrrolo[3,2-b]pyridin-1-yl)-5,7-difluoro-3-methyl-2-(1-phenylcyclopropyl)quinoline]
13 | 2.9 nM | C=C(c1ccccc1)c1nc2cc(F)cc(F)c2c(N2CC(C)(C)c3ncc(N4CCOCC4)cc32)c1C [4-(3,3-dimethyl-6-(4-morpholinyl)-2,3-dihydro-1H-pyrrolo[3,2-b]pyridin-1-yl)-5,7-difluoro-3-methyl-2-(1-phenylethenyl)quinoline]
14 | 8.12 nM | Cc1c(CCc2ccccc2)nc2cc(F)cc(F)c2c1N1CC(C)(C)c2ncc(N3CCOCC3)cc21 [4-(3,3-dimethyl-6-(4-morpholinyl)-2,3-dihydro-1H-pyrrolo[3,2-b]pyridin-1-yl)-5,7-difluoro-3-methyl-2-(2-phenylethyl)quinoline]
15 | 17.3 nM | Cc1c(Cc2cccc(C(F)(F)F)c2)nc2cc(F)cc(F)c2c1N1CC(C)(C)c2ncc(N3CCOCC3)cc21 [4-(3,3-dimethyl-6-(4-morpholinyl)-2,3-dihydro-1H-pyrrolo[3,2-b]pyridin-1-yl)-5,7-difluoro-3-methyl-2-(3-(trifluoromethyl)benzyl)quinoline]
16 | 18.4 nM | Cc1ccnc(-c2nc3cc(F)cc(F)c3c(N3CC(C)(C)c4ncc(N5CCOCC5)cc43)c2C)c1 [4-(3,3-dimethyl-6-(4-morpholinyl)-2,3-dihydro-1H-pyrrolo[3,2-b]pyridin-1-yl)-5,7-difluoro-3-methyl-2-(4-methyl-2-pyridinyl)quinoline]
17 | 16.7 nM | Cc1c(-c2cncc(S(C)(=O)=O)c2)nc2cc(F)cc(F)c2c1N1CC(C)(C)c2ncc(N3CCOCC3)cc21 [4-(3,3-dimethyl-6-(4-morpholinyl)-2,3-dihydro-1H-pyrrolo[3,2-b]pyridin-1-yl)-5,7-difluoro-3-methyl-2-(5-(methylsulfonyl)-3-pyridinyl)quinoline]

Row | Ki | Compound
18 | 3 nM | Cc1cncc(-c2nc3cc(F)cc(F)c3c(N3CC(C)(C)c4ncc(N5CCOCC5)cc43)c2C)c1 [4-(3,3-dimethyl-6-(4-morpholinyl)-2,3-dihydro-1H-pyrrolo[3,2-b]pyridin-1-yl)-5,7-difluoro-3-methyl-2-(5-methyl-3-pyridinyl)quinoline]
19 | 88.3 nM | Cc1c(/C=C/c2ccccc2)nc2cc(F)cc(F)c2c1N1CC(C)(C)c2ncc(N3CCOCC3)cc21 [4-(3,3-dimethyl-6-(4-morpholinyl)-2,3-dihydro-1H-pyrrolo[3,2-b]pyridin-1-yl)-5,7-difluoro-3-methyl-2-((E)-2-phenylethenyl)quinoline]
20 | 4.07 nM | Cc1c(-c2ccccn2)nc2c(C)ccc(F)c2c1N1CC(C)(C)c2ncc(N3CCOCC3)cc21 [4-(3,3-dimethyl-6-(4-morpholinyl)-2,3-dihydro-1H-pyrrolo[3,2-b]pyridin-1-yl)-5-fluoro-3,8-dimethyl-2-(2-pyridinyl)quinoline]
21 | 3.33 nM | Cc1c(-c2ccccn2)nc2cccc(F)c2c1N1CC(C)(C)c2ncc(N3CCOCC3)cc21 [4-(3,3-dimethyl-6-(4-morpholinyl)-2,3-dihydro-1H-pyrrolo[3,2-b]pyridin-1-yl)-5-fluoro-3-methyl-2-(2-pyridinyl)quinoline]
22 | 437 nM | CC1(C)CN(c2c(C#N)c(-c3ccccn3)nc3cc(F)ccc23)c2cc(N3CCOCC3)cnc21 [4-(3,3-dimethyl-6-(4-morpholinyl)-2,3-dihydro-1H-pyrrolo[3,2-b]pyridin-1-yl)-7-fluoro-2-(2-pyridinyl)-3-quinolinecarbonitrile]
23 | 5.87 nM | CC(C)c1c(-c2ccccn2)nc2cc(F)ccc2c1N1CC(C)(C)c2ncc(N3CCOCC3)cc21 [4-(3,3-dimethyl-6-(4-morpholinyl)-2,3-dihydro-1H-pyrrolo[3,2-b]pyridin-1-yl)-7-fluoro-3-(1-methylethyl)-2-(2-pyridinyl)quinoline]
24 | 7.8 nM | Cc1c(-c2ccccc2S(C)(=O)=O)nc2cc(F)ccc2c1N1CC(C)(C)c2ncc(N3CCOCC3)cc21 [4-(3,3-dimethyl-6-(4-morpholinyl)-2,3-dihydro-1H-pyrrolo[3,2-b]pyridin-1-yl)-7-fluoro-3-methyl-2-(2-(methylsulfonyl)phenyl)quinoline]
25 | 4.07 nM | Cc1ncccc1-c1nc2cc(F)ccc2c(N2CC(C)(C)c3ncc(N4CCOCC4)cc32)c1C [4-(3,3-dimethyl-6-(4-morpholinyl)-2,3-dihydro-1H-pyrrolo[3,2-b]pyridin-1-yl)-7-fluoro-3-methyl-2-(2-methyl-3-pyridinyl)quinoline]
26 | 6.76 nM | Cc1c(-c2ccccn2)nc2cc(F)ccc2c1N1CC(C)(C)c2ncc(N3CCOCC3)cc21 [4-(3,3-dimethyl-6-(4-morpholinyl)-2,3-dihydro-1H-pyrrolo[3,2-b]pyridin-1-yl)-7-fluoro-3-methyl-2-(2-pyridinyl)quinoline]
27 | 4.17 nM | Cc1ccnc(-c2nc3cc(F)ccc3c(N3CC(C)(C)c4ncc(N5CCOCC5)cc43)c2C)c1 [4-(3,3-dimethyl-6-(4-morpholinyl)-2,3-dihydro-1H-pyrrolo[3,2-b]pyridin-1-yl)-7-fluoro-3-methyl-2-(4-methyl-2-pyridinyl)quinoline]
28 | 17.1 nM | Cc1c(Nc2ccccn2)nc2cc(F)cc(F)c2c1N1CC(C)(C)c2ncc(N3CCOCC3)cc21 [4-(3,3-dimethyl-6-morpholino-2,3-dihydro-1H-pyrrolo[3,2-b]pyridin-1-yl)-5,7-difluoro-3-methyl-N-(pyridin-2-yl)quinolin-2-amine]
29 | 883 nM | Cc1c(-c2ccccn2)nc2ncccc2c1N1CCOc2ccc(N3CCOCC3)cc21 [4-(3-methyl-2-(2-pyridinyl)-1,8-naphthyridin-4-yl)-6-(4-morpholinyl)-3,4-dihydro-2H-1,4-benzoxazine]
30 | 33.3 nM | Cc1c(-c2ccccn2)nc2cc(F)ccc2c1N1CC(C)(C)c2nc(Br)c(N3CCOCC3)cc21 [4-(5-bromo-3,3-dimethyl-6-(4-morpholinyl)-2,3-dihydro-1H-pyrrolo[3,2-b]pyridin-1-yl)-7-fluoro-3-methyl-2-(2-pyridinyl)quinoline]
31 | 68.7 nM | Cc1ccnc(-c2nc3ncccc3c(N3CC(C)(C)c4nc(Cl)c(N5CCOCC5)cc43)c2C)c1 [4-(5-chloro-3,3-dimethyl-6-(4-morpholinyl)-2,3-dihydro-1H-pyrrolo[3,2-b]pyridin-1-yl)-3-methyl-2-(4-methyl-2-pyridinyl)-1,8-naphthyridine]
32 | 3.16 nM | Cc1c(-c2ccccn2)nc2cc(F)ccc2c1N1CC(C)(C)c2nc(Cl)c(N3CCOCC3)cc21 [4-(5-chloro-3,3-dimethyl-6-(4-morpholinyl)-2,3-dihydro-1H-pyrrolo[3,2-b]pyridin-1-yl)-7-fluoro-3-methyl-2-(2-pyridinyl)quinoline]
33 | 23.5 nM | Cc1c(-c2ccccc2F)nc2cccc(F)c2c1N1CCS(=O)(=O)c2ccc(N3CCOCC3)cc21 [4-(5-fluoro-2-(2-fluorophenyl)-3-methyl-4-quinolinyl)-6-(4-morpholinyl)-3,4-dihydro-2H-1,4-benzothiazine 1,1-dioxide]
